From patent US20050245440A1, “Regulation of a novel colon specific retinol dehydrogenase by apc and cdx2” (University of Utah Research Foundation, priority 2002, published 2005)
“Also recorded” adds a separate entry of the source. Read-outs that look alike come from different tables or passages of the source.

Columns and labels:
RDHL [1] = test: Northern analysis of RDHL in HT29 APC-inducible cells; type: cell-based, human; details: 100 μM ZnCl2 24 h vs water, normalized to GAPDH
Text: (§1) Cell Culture and Drug Treatments. […] Northern blotting.

cdx2 [2] = test: Northern analysis of cdx2 in HT29 APC-inducible cells; type: cell-based, human; details: 100 μM ZnCl2 24 h, data not shown
Text: as §1

RDHL [3] = test: Northern analysis of RDHL in HT29 β-galactosidase-inducible cells; type: cell-based, human; details: HT29 β-galactosidase-inducible cells (negative control); 100 μM ZnCl2 24 h vs water
Text: as §1

colon cancer cells = details: cited from earlier work
RDH5 [4] = test: Northern analysis of RDH5 expression in HCT116 cells; type: cell-based, human; details: 5-Aza-CdR
Text: as §1

HCT116 cells = details: following 5-Aza-CdR treatment; cited from earlier work
[5] = system: RA response genes in HT29 cells; test: Microarray analysis of RA response gene expression in HT29 cells; type: cell-based, human
Text: (§2) Cell Culture and Drug Treatments.
(§3) Microarray Analysis. Slides were produced using a Generation m Microarray Spotter (Molecular Dynamics). Each microarray contained 4608 minimally redundant cDNAs spotted in duplicate on 3-aminopropyl-trimethoxy silane (Sigma) coated slides and UV crosslinked in a Stratalinker (Stratagene). The cDNA clones on the microarray were obtained from Research Genetics and Genome Systems. […] . Cultures were transferred to a multiscreen 96-well glass fiber filtration plate (Millipore) and growth medium voided. Twenty-five μl of 25 mM Tris-HCl, pH 8; 10 mM EDTA, 50 μl of 0.2N NaOH, 1% SDS and 160 μl of 0.7M potassium acetate, pH 4.8; 5.3M guanidine hydrochloride were added to each well of the glass filtration plate. Cell lysates were drawn through the glass filters under vacuum and filter-bound DNA was washed four times with 200 μl of 80% ethanol. Plasmid DNAs were eluted by centrifugation following the addition of 65 μl of distilled H2O. Samples were collected in a 96-well microtiter dish during centrifugation.
(§4) Generation of microarray probes, microarray hybridizations, and scanning Total RNA was isolated using Trizol reagent (Invitrogen) and poly-A RNA was selected using an Oligotex Kit (Qiagen). […]
(§5) Hybridizations were performed overnight at 42° C. in a humidified chamber. […] Fluorescent intensities were quantified using ArrayVision 4.0 (Imaging Research).

[6] = system: RA response genes in HCT116 cells; test: Microarray analysis of RA response gene expression in HCT116 cells; type: cell-based, human; details: 5 μM 5-Aza-CdR
Text: as §2, §3, §4, §5

cdx2 [7] = test: Northern analysis of cdx2 expression in HT29 cells; type: cell-based, human; details: after 5-Aza-CdR
Text: as §1

HT29 cells = details: found previously (56); cited from earlier work
RDHL [8] = test: Northern analysis of RDHL expression in HT29 cells; type: cell-based, human; details: 5 μM 5-Aza-CdR, cultured 6 days
Text: as §1

RDH5 [9] = test: Northern analysis of RDH5 expression in HT29 cells; details: after 5-Aza-CdR treatment

## [Cl-].[Cl-].[Zn+2] [ZnCl2]
RDHL [1]
  fold RDHL induction: 3.2 fold
cdx2 [2]
  cdx2 induction after re-introduction of APC: no cdx2 induction
RDHL [3]
  fold RDHL induction: 1.2 fold

## C[C@]12CC[C@H]3[C@@H](CCC4=CC(=O)CC[C@@]43C)[C@@H]1CC[C@@H]2O [testosterone]
Colon cancer cells; another group (87)
  cell growth of colon cancer cells: increased cell growth
Colon cancer cells; one study (86)
  cell growth of colon cancer cells: failed to affect cell growth

## Nc1ncn([C@H]2C[C@H](O)[C@@H](CO)O2)c(=O)n1 [5-Aza-CdR, 5-aza-2′-deoxycytidine]
RDH5 [4]
  RDH5 expression: no effect
HCT116 cells
  markers of differentiation: few markers of differentiation
[5]; 5 μM 5-Aza-CdR 10 days, then 1 μM RA 24 h
  RA responsiveness of RA response genes: conferred RA responsiveness
[5]; 5 μM 5-Aza-CdR on day 0, cultured 10 days, microarray vs PBS/ethanol
  RA response gene expression: enhances
[6]
  RA response gene expression: not induced
cdx2 [7]
  cdx2 expression: induction of cdx2
HT29 cells
  differentiation and differentiation markers: stimulates biological aspects of differentiation and the appearance of differentiation markers
RDHL [8]
  RDHL expression: expression of RDHL only after treatment with 5-Aza-CdR; also recorded: re-expressed
RDH5 [9]
  RDH5 levels: slightly increased; also recorded: re-expressed

## CC(=O)[C@H]1CC[C@H]2[C@@H]3CCC4=CC(=O)CC[C@]4(C)[C@H]3CC[C@]12C [progesterone]
Colon cancer cells; one study (86)
  cell growth of colon cancer cells: failed to affect cell growth
